In patent US20080051419A1, “AMINE DERIVATIVES USEFUL AS ANTICANCER AGENTS” (PFIZER INC., priority 2006, published 2008) one finds IC50 data, which are given here for 13 compounds.

The assay concerns the target T1, Akt1 (Homo sapiens, UniProt P31749, S473D).
T1 construct: The version of Akt used in these studies lacks the pleckstrin homology (PH) domain
Briefly: Akt1 kinase assay, fluorescence polarization (IMAP). As to conditions: for pIC50: Table 1, concentration bins, read-out: Concentration Range at which exemplary compounds of formula I inhibit Akt kinase activity; for IC50: read-out: Avg Akt kinase, μM (50% inhibition). Type of assay: biochemical. The protocol:
The Akt1 kinase assay is based on the measurement of fluorescence polarization using IMAP technology (Molecular Devices Corporation #R8062). Two microliters of inhibitor compounds diluted to a concentration of 10 millimolar are added to column 2 of a polypropylene 96-well plate containing 98 microliters of 100% DMSO; the wells in columns 3-12 contain 60 microliters of 100% DMSO. The various test compounds are serially diluted 1:3 across the plate by pipetting 30 microliters of compounds into wells containing 60 microliters of 100% DMSO. Column 12 receives DMSO only and is used as a negative control for inhibition. The components of the wells are mixed and 15 microliters of each well are transferred to another 96-well plate already containing 60 microliters of reaction buffer (RB: 10 mM Tris-HCl, pH 7.5, 10 mM MgCl2, 0.1 mM EGTA, 0.01% Triton-X100 (Sigma #X-100), freshly added 1 mM DTT). After mixing, the […] reactions are assembled. First, five microliters of the above compound/reaction buffer mixture is transferred to the bottom of a 96-well black polystyrene reaction plate (Costar, #3694). Next, ten microliters of a solution containing 4 micromolar ATP and 40 nanomolar fluorescent-labeled Crosstide (Tamara-labeled […] peptide) are added. Then, 5 microliters (1.5 nanograms) of Akt protein in RB are added. The version of Akt used in these studies lacks the pleckstrin homology (PH) domain, and contains an aspartic acid residue in place of a serine residue in position 473 within the Akt1 hydrophobic motif. The Akt1 protein contains a polyhistidine tag at the amino terminus and is prephosphorylated on threonine at position 308 in order to activate latent kinase activity. Once the reaction components and inhibitors are assembled, the plates are gently tapped, covered with foil, and then incubated at ambient temperature for 30 minutes. IMAP beads (Molecular Devices) are then added (60 microliters of a 1:400 dilution of beads in RB). Plates are read on a Victor Plate Reader with the following settings: CW lamp filter: 544 nm, emission filter: 615 nm. Control values from wells lacking Akt protein are subtracted from the gross readings, and IC50 values are calculated using XLDA.
On the technique in general: In fluorescence polarisation assays a small probe gives low polarisation when free and higher when bound to something large.

pIC50: −log10 of the molar value. Read-outs that look alike come from different tables or passages of the source.

T1 sequence (P31749 118-480 S473D limits assumed, species assumed): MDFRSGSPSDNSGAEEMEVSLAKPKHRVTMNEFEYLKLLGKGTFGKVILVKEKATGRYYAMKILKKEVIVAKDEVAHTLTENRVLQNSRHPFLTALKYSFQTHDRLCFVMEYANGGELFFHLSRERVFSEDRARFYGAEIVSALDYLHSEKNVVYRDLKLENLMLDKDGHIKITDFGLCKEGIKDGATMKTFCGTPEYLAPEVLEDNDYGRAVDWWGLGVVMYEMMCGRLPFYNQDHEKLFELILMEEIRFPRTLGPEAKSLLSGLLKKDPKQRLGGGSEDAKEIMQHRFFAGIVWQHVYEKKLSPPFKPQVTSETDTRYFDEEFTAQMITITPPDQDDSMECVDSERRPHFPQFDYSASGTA

Consider `Cc1c[nH]c2ncnc(N3CCC(N)(CNc4ccc(Cl)nn4)C3)c12` (stereo not shown) [Example 52, N-{[3-amino-1-(5-methyl-7H-pyrrolo[2,3-d]pyrimidin-4-yl)pyrrolidin-3-yl]methyl}-6-chloropyridazin-3-amine], for which the pIC50 is 7.00 to 8.00. Besides, the IC50 (Table 3) came out at 0.082 µM.
For `Cc1cc(CNC[C@@]2(N)CCN(c3ncnc4[nH]cc(C)c34)C2)no1` [Example 53, (3S)-3-({[(5-methylisoxazol-3-yl)methyl]amino}methyl)-1-(5-methyl-7H-pyrrolo[2,3-d]pyrimidin-4-yl)pyrrolidin-3-amine], in that order: 7.00 to 8.00 and 0.0293 µM.
As for `Cc1c[nH]c2ncnc(N3CCC(N)(CNCC4CC4)C3)c12` (stereo not shown) [Example 54, 3-{[(cyclopropylmethyl)amino]methyl}-1-(5-methyl-7H-pyrrolo[2,3-d]pyrimidin-4-yl)pyrrolidin-3-amine], the pIC50 was 5.00 to 7.00. Also, for the setting “Table 3”, the IC50 stood at 0.739 µM.
Regarding `CN(CC1(N)CCN(c2ncnc3[nH]cc(Cl)c23)C1)c1ccc(Cl)cc1` (stereo not shown) [Example 55, 3-{[(4-chlorophenyl)(methyl)-amino]methyl}-1-(5-chloro-7H-pyrrolo[2,3-d]pyrimidin-4-yl)pyrrolidin-3-amine], the pIC50 was 7.00 to 8.00. Moreover, the IC50 (Table 3) worked out at 0.012 µM.
`Cc1c[nH]c2ncnc(N3CC[C@](N)(CNC4=NC(=O)CC=C4)C3)c12` [Example 56, 6-({[(3S)-3-amino-1-(5-methyl-7H-pyrrolo[2,3-d]pyrimidin-4-yl)pyrrolidin-3-yl]methyl}amino)pyridin-2(3H)-one]: the pIC50 is 7.00 to 8.00. For the same compound, the IC50 (Table 3) amounted to 0.014 µM.
For `Cc1c[nH]c2ncnc(N3CCC(N)(CNc4nccc(C(F)(F)F)n4)C3)c12` (stereo not shown) [Example 57, N-{[3-amino-1-(5-methyl-7H-pyrrolo[2,3-d]pyrimidin-4-yl)pyrrolidin-3-yl]methyl}-4-(trifluoromethyl)pyrimidin-2-amine], in that order: 7.00 to 8.00 and 0.0287 µM.
In the case of `Cc1c[nH]c2ncnc(N3CCC(N)(COc4cccc(C(F)(F)F)c4)C3)c12` (stereo not shown) [Example 60, 1-(5-Methyl-7H-pyrrolo[2,3-d]pyrimidin-4-yl)-3-(3-trifluoromethyl-phenoxymethyl) pyrrolidin-3-ylamine], the pIC50 is 7.00 to 8.00. Moreover, the IC50 (Table 4) was 0.0504 µM.
As for `Cc1c[nH]c2ncnc(N3CC[C@](N)(COc4cccc(C(F)(F)F)c4)C3)c12` [Example 61, (3R)-1-(5-methyl-7H-pyrrolo[2,3-d]pyrimidin-4-yl)-3-{[3-(trifluoromethyl)-phenoxy]methyl}pyrrolidin-3-amine], the pIC50 is 7.00 to 8.00. Further, where the note is “Table 4”, the IC50 came out at 0.0335 µM.
For `Cc1c[nH]c2ncnc(N3CC[C@@](N)(COc4cccc(C(F)(F)F)c4)C3)c12` [Example 62], the IC50 (Table 4) is 2.69 µM.
Consider `N#Cc1c[nH]c2ncnc(N3CCC(N)(COc4cccc(C(F)(F)F)c4)C3)c12` (stereo not shown) [Example 63, 4-(3-amino-3-{[3-(trifluoromethyl)phenoxy]methyl}pyrrolidin-1-yl)-7H-pyrrolo[2,3-d]pyrimidine-5-carbonitrile], for which the pIC50 is 7.00 to 8.00. For the same compound, the IC50 (Table 4) is 0.0641 µM.
For the compound `CCc1c[nH]c2ncnc(N3CCC(N)(COc4cccc(C(F)(F)F)c4)C3)c12` (stereo not shown) [Example 64], the pIC50 was 7.00 to 8.00. Further, for the setting “Table 4”, the IC50 is 0.0215 µM.
Take `CCc1c[nH]c2ncnc(N3CCC(N)(COc4cccc(C)c4)C3)c12` (stereo not shown) [Example 65, 1-(5-ethyl-7H-pyrrolo[2,3-d]pyrimidin-4-yl)-3-[(3-methylphenoxy)methyl]pyrrolidin-3-amine]: the pIC50 is 7.00 to 8.00. Further, the IC50 (Table 4) came to 0.0948 µM.
In the case of `Cc1c[nH]c2ncnc(N3CCC(N)(CSc4cccc(C(F)(F)F)c4)C3)c12` (stereo not shown) [Example 66, 1-(5-methyl-7H-pyrrolo[2,3-d]pyrimidin-4-yl)-3-((3-(trifluoromethyl)phenylthio)methyl) -pyrrolidin-3-amine], the pIC50 is 5.00 to 7.00. Besides, the IC50 (average Akt kinase activity (IC50)) came out at 0.701 µM.
